Experimental data from patent publication US6642012B1, “Spectroscopic determination of characteristic of biological material” (priority 1996, dated 2003).

Tested on: Peripheral blood mononuclear cells (PBMC)
Test: FTIR monitoring of lymphocyte activation
Assay type: cell-based, human
Experimental: Peripheral blood mononuclear cells (PBMC) from two volunteers, isolated using gradient mixtures were twice washed in 0.9% saline and centrifuged. The resulting pellets were resuspended in 1 ml of saline. One half of each sample was activated with phorbol myristate acetate (PMA) and the other half used as a control. After 15 minutes the four portions were desiccated and transferred to a infrared cell for FTIR microanalysis. For each portion six spectra were recorded.

[1] = PMA activated vs non-activated lymphocytes, 15 minutes

CCCCCCCCCCCCCC(=O)O[C@@H]1[C@@H](C)[C@@]2(O)[C@@H](C=C(CO)C[C@]3(O)C(=O)C(C)=C[C@@H]23)[C@@H]2C(C)(C)[C@]12OC(C)=O [PMA, phorbol myristate acetate]
FTIR spectra of activated vs non-activated lymphocytes (PBMC from two volunteers, PMA activation 15 minutes, desiccated, FTIR microanalysis): marked differences | amide II band (PMA activated lymphocytes, 15 minutes): multitude of shoulder peaks | C—O stretch of fatty acyl groups (1400 cm-1) and C—O stretches of glycogen bands at 1058 and 1038 cm-1 [1]: much more intense | amide I β-pleated sheet component band at 1634 cm-1 [1]: increase | α-helical amide I band [1]: reduction
